Test results from patent US5985910A, “3- [4- (2- Phenyl-Indole-1-ylmethyl) Phenyl]- Acrylamides as estrogenic agents” (priority 1997, dated 1999).

Tests used:
estrogen receptor [1] = target: T1, estrogen receptor (Homo sapiens, UniProt P03372); assay: 2X VIT ERE Transfection (luciferase) Assay in CHO cells; assay type: cell-based; set-up: expressed in transfected cells; host or cells: Chinese Hamster Ovary (CHO) cells, stably transfected; settings: for % Activation with 1 nM 17β-estradiol (luciferase): 1 uM compound + 1 nM 17β-estradiol, 24 h (antagonism); for activation at 1 µM: CHO, 24 h
T1 sequence (P03372 1-595): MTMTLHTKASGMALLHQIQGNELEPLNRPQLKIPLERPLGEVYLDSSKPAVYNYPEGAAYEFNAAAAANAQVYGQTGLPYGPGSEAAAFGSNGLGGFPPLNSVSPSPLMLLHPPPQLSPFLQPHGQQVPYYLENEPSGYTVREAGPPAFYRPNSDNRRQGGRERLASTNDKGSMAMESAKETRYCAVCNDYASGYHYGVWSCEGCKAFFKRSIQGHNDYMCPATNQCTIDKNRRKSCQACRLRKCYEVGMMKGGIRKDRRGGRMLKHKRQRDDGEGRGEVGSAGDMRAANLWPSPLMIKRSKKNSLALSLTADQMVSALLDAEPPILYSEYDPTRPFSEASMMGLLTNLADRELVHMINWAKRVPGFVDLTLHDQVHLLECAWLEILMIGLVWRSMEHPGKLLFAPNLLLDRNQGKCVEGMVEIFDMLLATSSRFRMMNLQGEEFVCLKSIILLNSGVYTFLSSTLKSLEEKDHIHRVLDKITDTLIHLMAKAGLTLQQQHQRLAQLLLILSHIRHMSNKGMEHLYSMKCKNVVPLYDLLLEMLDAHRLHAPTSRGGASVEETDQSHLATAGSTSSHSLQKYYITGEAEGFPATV
Description: 2X VIT ERE Transfection Assay
(§1) Cell Maintenance and Treatment
Chinese Hamster Ovary cells (CHO) which had been stably transfected with the human estrogen receptor were maintained in DMEM+10% fetal bovine serum (FBS). 48 h prior to treatment the growth medium was replaced with DMEM lacking phenol red +10% dextran coated charcoal stripped FBS (treatment medium). Cells were plated at a density of 5000 cells/well in 96-well plates containing 200 μL of medium/well.
Calcium Phoshate Transfection
Reporter DNA (Promega plasmid pGL2 containing two tandem copies of the vitellogenin ERE in front of the minimal thymidine kinase promoter driving the luciferase gene) was combined with the B-galactosidase expression plasmid pCH110 (Pharmacia) and carrier DNA (pTZ18U) in the following ratio:
20 uL of this mixture was added to each well of cells and remained on the cells for 16 h. […] Each treatment condition was performed on 8 wells (n=8) which were incubated for 24 h prior to the luciferase assay.
After removing the PBS, 25 uL of Promega lysis buffer was added to each well and allowed to stand at room temperature for 15 min, followed by 15 min at -80° C. and 15 min at 37° C. 20 uL of lysate was transferred to an opaque 96 well plate for luciferase activity evaluation and the remaining lysate (5 uL) was used for the B-galactosidase activity evaluation (normalize transfection). The luciferan substrate (Promega) was added in 100 uL aliquots to each well automatically by the luminometer and the light produced (relative light units) was read 10 seconds after addition.
To the remaining 5 uL of lysate 45 uL of PBS was added. Then 50 uL of Promega B-galactosidase 2× assay buffer was added, mixed well and incubated at 37° C. for 1 hour. A plate containing a standard curve (0.1 to 1.5 milliunits in triplicate) was set up for each experimental run. The plates were analyzed on a Molecular Devices spectrophotometric plate reader at 410 nm. The optical densities for the unknown were converted to milliunits of activity by mathematical extrapolation from the standard curve.
The luciferase data was generated as relative light units (RLUs) accumulated during a 10 second measurement and automatically transferred to a JMP (SAS Inc) file where background RLUs were subtracted. The B-galactosidase values were automatically imported into the file and these values were divided into the RLUs to normalize the data. The mean and standard deviations were determined from a n=8 for each treatment. […] These techniques are described by Tzukerman, M. T., Esty, A., Santiso-Mere, D., Danielian, P., Parker, M. G., Stein, R. B., Pike, J. W. and McDonnel, D. P. (1994). Human estrogen receptor transactivational capacity was determined by both cellular and promoter context and mediated by two functionally distinct intramolecular regions (see Molecular Endocrinology, 8:21-30).

Ishikawa cells = assay: Ishikawa Cell Alkaline Phosphatase Assay; assay type: cell-based, human; settings: for % Activation (Compound ± 1 nM 17β-estradiol) (alkaline phosphatase): 10^-6 M compound + 1 nM 17β-estradiol, 48 h (antiestrogen test); for % Activation (alkaline phosphatase): compound alone, 48 h, percent of response related to 1 nM 17β-estradiol
Description: Ishikawa Cell Alkaline Phosphatase Assay
as §1
Ishikawa cells were maintained in DMEM/F12 (50%:50%) containing phenol red+10% fetal bovine serum and the medium was supplemented with 2 mM Glutamax, 1% Pen/Strap and 1 mM sodium pyruvate. Five days prior to the beginning of each experiment (treatment of cells) the medium was changed to phenol red-free DMEM/F12+10% dextran coated charcoal stripped serum. On the day before treatment, cells were harvested using 0.5% trypsin/EDTA and plated at a density of 5×10^4 cells/well in 96-well tissue culture plates. […] Cells were treated for 48 h prior to assay. […] Sample population for at each dose was n=8.
Alkaline Phosphatase Assay
At the end of 48 h the media is aspirated and cells are washed three times with phosphate buffered saline (PBS). 50 μL of lysis buffer (0.1 M Tris-HCl, pH 9.8, 0.2% Triton X-100) is added to each well. Plates are placed at -80° C. for a minimum of 15 minutes. Plates are thawed at 37° C. followed by the addition of 150 μL of 0.1 M Tris-HCl, pH 9.8, containing 4 mM para-nitrophenylphosphate (pNPP) to each well (final concentration, 3 mM pNPP).
Absorbance and slope calculations were made using the KineticCalc Application program (Bio-Tek Instruments, Inc., Winooski, Vt.). Results are expressed as the mean +/-S.D. of the rate of enzyme reaction (slope) averaged over the linear portion of the kinetic reaction curve (optical density readings every 5 minutes for 30 minutes absorbance reading).
Various compounds were assayed for estrogenic activity by the alkaline phosphatase method and corresponding ED50 values (95% C.I.) were calculated. The four listed in the following were used as reference standards:
A description of such methods is provided by Holinka, C. F., Hata, H., Kuramoto, H. and Gurpide, E. (1986) Effects of steroid hormones and antisteroids on alkaline phosphatase activity in human endometrial cancer cells (Ishikawa Line). Cancer Research, 46:2771-2774, and by Littlefield, B. A., Gurpide, E., Markiewicz, L., McKinley, B. and by Hochberg, R. B. (1990) A simple and sensitive microtiter plate estrogen bioassay based on stimulation alkaline phosphatase in Ishikawa cells; Estrogen action of D5 adrenal steroids. Endocrinology, 6:2757-2762.

estrogen receptor [2] = target: T1, estrogen receptor; assay: In Vitro Estrogen Receptor Binding Assay ([3H]-17β-estradiol competition, cytosol of CHO cells overexpressing the estrogen receptor); set-up: made in house; host or cells: CHO cells overexpressing the receptor; 100,000 g cytosol
Description: In Vitro Estrogen Receptor Bonding Assay
CHO cells overexpressing the estrogen receptor were grown in 150 mm^2 dishes in DMEM+10% dextran coated charcoal, stripped fetal bovine serum. The plates were washed twice with PBS and once with 10 mM Tris-HCl, pH 7.4, 1 mM EDTA. Cells were harvested by scraping the surface and then the cell suspension was placed on ice. Cells were disrupted with a hand-held motorized tissue grinder using two, 10-second bursts. […] The cytosol was then frozen and stored at -80° C. Protein concentration of the cytosol was estimated using the BCA assay with reference standard protein.
100 uG/100 uL of the receptor preparation was aliquoted per well. […] The plate was incubated at room temperature for 2.5 h. […] 200 uL of the supernatant solution was then removed for scintillation counting. Samples were counted to 2% or 10 minutes, whichever occurs first. […] Also, wells containing radioactivity but no cytosol were processed with charcoal to estimate unremovable DPM of [^3 H] […].
Counts per minute (CPM) of radioactivity were automatically converted to disintegrated per minute (DPM) by the Beckman LS 7500 Scintillation Counter using a set of quenched standards to generate a H# for each sample.
((DPM sample-DPM not removed by charcoal)/(DPM estradiol-DPM not removed by charcoal))×100%=% of estradiol binding
For the generation of IC50 curves, % binding is plotted vs compound. […] For a description of these methods, see Hulme, E. C., ed. […] Receptor-Ligand Interactions: A Practical Approach. IRL Press, New York (see especially chapter 8).

uteri = assay: Rat Uterotrophic/Antiuterotrophic Bioassay (results headed 3-Day Ovariectomized Rat Model); assay type: in vivo, rat (Sprague-Dawley); settings: 1 μG; Example 12 experiment, control = 31.4 mg
Description: Rat Uterotrophic/Antiuterotrophic Bioassay
Immature Sprague-Dawley rats (female, 18 days old) were tested in groups of six. […] On day 4 the animals were sacrificed by CO2 asphyxiation and their uteri were removed and stripped of excess lipid, any fluid removed and the wet weight determined. A small section of one horn was submitted for histology and the remainder used to isolate total RNA in order to evaluate complement component 3 gene expression.

% Activation with 1 nM 17β-estradiol (luciferase) (estrogen receptor [1])	activation at 1 µM (estrogen receptor [1])	Estrogen Receptor Affinity (RBA) (estrogen receptor [2])	SMILES	% Activation (Compound ± 1 nM 17β-estradiol) (alkaline phosphatase) (Ishikawa cells)	% Activation (alkaline phosphatase) (Ishikawa cells)	uterine wet weight, 1 μG 17β-estradiol (uteri)
8%	6%		Cc1c(-c2ccc(O)cc2)n(Cc2ccc(/C=C/C(=O)N3CCCC3)cc2)c2ccc(O)cc12 [Example 9, (E)-Pyrrolidino-3-{4-[5-hydroxy-2-(4-hydroxy-phenyl)-3-methyl-indol-1-ylmethyl]-phenyl}-acrylamide]	11%	3%	
57%	19%	32	Cc1c(-c2ccc(O)cc2)n(Cc2ccc(/C=C/C(N)=O)cc2)c2ccc(O)cc12 [Example 14, (E)-3-{4-[5-hydroxy-2-(4-hydroxy-phenyl)-3-methyl-indol-1-ylmethyl]-phenyl}-acrylamide]	14%	2%	
78%	6%	40	Cc1c(-c2ccc(O)cc2)n(Cc2ccc(/C=C/C(=O)NC(C)(C)C)cc2)c2ccc(O)cc12 [Example 8, 1(E)-N-tert-butyl-3-{4-[5-hydroxy-2-(4-hydroxy-phenyl)-3-methyl-indol-1-ylmethyl]-phenyl}-acrylamide]	22%	10%	
17%	8%		Cc1c(-c2ccc(O)cc2)n(Cc2ccc(/C=C/C(=O)N3CCOCC3)cc2)c2ccc(O)cc12 [Example 13]	9%	7%	
24%	13%	114	CCCCN(C)C(=O)/C=C/c1ccc(Cn2c(-c3ccc(O)cc3)c(C)c3cc(O)ccc32)cc1 [Example 12, (E)-N-Butyl. N'-methyl-3-{4-[5-hydroxy-2-(4-hydroxy-phenyl)-3-methyl-indol-1-ylmethyl]-phenyl}-acrylamide]	16%	7%	
			C[C@]12CC[C@@H]3c4ccc(O)cc4CC[C@H]3[C@@H]1CC[C@@H]2O [17β-estradiol, reference compound]			89.0 mg
8%	4%	42	CCN(CC)C(=O)/C=C/c1ccc(Cn2c(-c3ccc(O)cc3)c(C)c3cc(O)ccc32)cc1 [Example 7, (E)-N,N-Diethyl-3-{4-[5-hydroxy-2-(4-hydroxy-phenyl)-3-methyl-indol-1-ylmethyl]-phenyl}-acrylamide]	9%	1%	
31%	15%	53	CNC(=O)/C=C/c1ccc(Cn2c(-c3ccc(O)cc3)c(C)c3cc(O)ccc32)cc1 [Example 15, (E)-N,Methyl-3-{4-[5-hydroxy-2-(4-hydroxy-phenyl)-3-methyl-indol-1-ylmethyl]-phenyl}-acrylamide]	5%	0%	
2%	1%	20	Cc1c(-c2ccc(O)cc2)n(Cc2ccc(/C=C/C(=O)N(C)C)cc2)c2ccc(O)cc12 [Example 10, (E)-N,N-Dimethyl-3-{4-[5-hydroxy-2-(4-hydroxy-phenyl)-3-methyl-indol-1-ylmethyl]-phenyl}-acrylamide]	19%	6%	
